According to ChEMBL document CHEMBL1158240, “Phytogrowth-inhibitory and antifungal constituents of Helianthella quinquenervis” (J Nat Prod, 1996):
In brackets after ≈: the same amount, converted by molar mass. Activity calls are given as the source filed them. The calls are words filed in the database; no cut-off is given here.

How the values were obtained:
[1] = Toxicity in brine shrimp; type: organism-based; conditions: artemia, in vivo
MCF7 = test: Cytotoxicity against human MCF7 cells after 7 days by MTT assay; type: functional; conditions: MCF7, 168 h, read-out: ED50 (the source's name)
Aspergillus niger = test: Antimicrobial activity against Aspergillus niger ATCC 16888 by agar dilution method; type: functional, organism-based
HT-29 = test: Cytotoxicity against human HT29 cells after 7 days by MTT assay; type: functional; conditions: HT-29, 168 h, read-out: ED50 (the source's name)
A549 = test: Cytotoxicity against human A549 cells after 7 days by MTT assay; type: functional; conditions: A549, 168 h, read-out: ED50 (the source's name)
Candida albicans = test: Antimicrobial activity against Candida albicans ATCC 10231 by agar dilution method; type: functional, organism-based
Echinochloa crus-galli = test: Phytogrowth-inhibitory activity against Echinochloa crus-galli assessed as inhibition of seedling germination by petri dish bioassay; type: functional, organism-based
[2] = tested on: Amaranthus hypochondriacus; test: Phytogrowth-inhibitory activity against Amaranthus hypochondriacus assessed as inhibition of seedling growth petri dish bioassay; type: functional, organism-based
[3] = tested on: Trichophyton mentagrophytes; test: Antimicrobial activity against Trichophyton mentagrophytes ATCC 9129 by agar dilution method; type: functional

For `COC(C)(C)/C=C/c1cc(C(C)=O)ccc1O[C@@H]1O[C@H](CO)[C@@H](O)[C@H](O)[C@H]1O`, the LC50 [1] was greater than 1000 µg/mL, the EC50 (MCF7) was 44 µg/mL (≈ 111 µM) and the Activity (Aspergillus niger) was “inactive”. For the same compound, the EC50 (HT-29) was 61 µg/mL (≈ 154 µM), the EC50 (A549) was 6 µg/mL (≈ 15.1 µM) and the Activity (Candida albicans) was “inactive”. It also gave an IC50 (Echinochloa crus-galli) of 231 µg/mL (≈ 583 µM) and an IC50 [2] of 148 µg/mL (≈ 373 µM).
For `C=C(C)[C@H]1Cc2cc(C(C)=O)c(OC)cc2O1`, the LC50 [1] was 8 µg/mL (≈ 34.4 µM), the EC50 (MCF7) was 33 µg/mL (≈ 142 µM) and the Activity (Aspergillus niger) was “inactive”. For the same compound, the EC50 (HT-29) was 16 µg/mL (≈ 68.9 µM), the EC50 (A549) was 1 µg/mL (≈ 4.31 µM) and the Activity (Candida albicans) was “inactive”. The IC50 (Echinochloa crus-galli) was 68 µg/mL (≈ 293 µM) and the IC50 [2] was 11 µg/mL (≈ 47.4 µM).
For `C=C(C)[C@@H]1Oc2cc(O)c(C(C)=O)cc2[C@H]1OC`, the LC50 [1] was 68 µg/mL (≈ 274 µM), the EC50 (MCF7) was 34 µg/mL (≈ 137 µM) and the Activity (Aspergillus niger) was “inactive”. The EC50 (HT-29) was 16 µg/mL (≈ 64.4 µM), the EC50 (A549) was 31 µg/mL (≈ 125 µM) and the Activity (Candida albicans) was “inactive”. The IC50 (Echinochloa crus-galli) was 323 µg/mL (≈ 1300 µM) and the IC50 [2] was 61 µg/mL (≈ 246 µM).
With `CC(=O)c1cc2c(cc1O)OC(C)(C)C=C2` [DEMETHYLENCECALIN] the LC50 [1] was 31 µg/mL (≈ 142 µM), the EC50 (MCF7) was 2 µg/mL (≈ 9.16 µM) and the Activity (Aspergillus niger) was “inactive”. The EC50 (HT-29) was 2 µg/mL (≈ 9.16 µM), the EC50 (A549) was 10 µg/mL (≈ 45.8 µM) and the Activity (Candida albicans) was “inactive”. It also gave an IC50 (Echinochloa crus-galli) of 79 µg/mL (≈ 362 µM), an MIC [3] of 58 µg/mL (≈ 266 µM) and an IC50 [2] of 27 µg/mL (≈ 124 µM).
In the case of `COc1cccc2c1C(=O)c1c(O)c3c(c(O)c1C2=O)C[C@@](O)(C(=O)CO)C[C@@H]3O[C@H]1C[C@H](N)[C@H](O)[C@H](C)O1` [DOXORUBICIN], the EC50 (MCF7) is reported as 0.02 µg/mL (≈ 0.0368 µM), the EC50 (HT-29) is reported as 0.04 µg/mL (≈ 0.0736 µM) and the EC50 (A549) is reported as 0.002 µg/mL (≈ 0.00368 µM).
For `COc1cc2c(cc1C(C)=O)C=CC(C)(C)O2` [ENCECALIN], the LC50 [1] was 31 µg/mL (≈ 133 µM), the EC50 (MCF7) was 29 µg/mL (≈ 125 µM) and the Activity (Aspergillus niger) was “inactive”. For the same compound, the EC50 (HT-29) was 18 µg/mL (≈ 77.5 µM), the EC50 (A549) was 25 µg/mL (≈ 108 µM) and the Activity (Candida albicans) was “inactive”. For the same compound, the IC50 (Echinochloa crus-galli) was 6 µg/mL (≈ 25.8 µM) and the IC50 [2] was 7 µg/mL (≈ 30.1 µM).
For `C=C(C)c1cc2cc(C(C)=O)c(O)cc2o1` [EUPARIN], the LC50 [1] was 44 µg/mL (≈ 203 µM), the EC50 (MCF7) was 6 µg/mL (≈ 27.7 µM) and the Activity (Aspergillus niger) was “inactive”. For the same compound, the EC50 (HT-29) was 6 µg/mL (≈ 27.7 µM), the EC50 (A549) was 22 µg/mL (≈ 102 µM) and the Activity (Candida albicans) was “inactive”. The IC50 (Echinochloa crus-galli) was 252 µg/mL (≈ 1170 µM), the MIC [3] was 29 µg/mL (≈ 134 µM) and the IC50 [2] was 111 µg/mL (≈ 513 µM).
`COC1=CC(=O)C[C@@H](C)[C@]12Oc1c(Cl)c(OC)cc(OC)c1C2=O` [GRISEOFULVIN] gave an MIC [3] of 2.6 µg/mL (≈ 7.37 µM).
In the case of `CCCCC[C@H]1CCCCCCCCCC(=O)O[C@H]2[C@H](O)[C@@H](CO)O[C@@H](O[C@H]3[C@H](O1)O[C@H](C)[C@H](O)[C@@H]3O)[C@@H]2O[C@@H]1O[C@@H](C)[C@H](OC(=O)[C@@H](C)CC)[C@@H](O[C@@H]2O[C@@H](C)[C@H](O)[C@@H](O)[C@H]2O)[C@H]1OC(=O)[C@@H](C)CC` [TRICOLORIN A], the IC50 (Echinochloa crus-galli) is reported as 68 µg/mL (≈ 66.5 µM) and the IC50 [2] is reported as 11 µg/mL (≈ 10.8 µM).
